pIC50: −log10 of the molar value. Like-named read-outs stand apart in the source and are kept apart here.
Key:
male Wistar rats = assay: Anticonflict action, NaCl-Lick conflict method; format: in vivo; details: Rattus norvegicus, po, 1 hour before the test; number of licks in 5 minutes of 2% saline; rats deprived of water for 48 hours; read-out: Minimum effective dosage
Method: The anticonflict action of the compounds of the general formulae (I), (II), and (III) was evaluated in accordance with the NaCl-Lick conflict method of Tanga et al. (Pharmacol., Biochem., Behav., vol. 32, pp. 773-776, 1989). That is, six-week old male Wistar rats in groups of six to 10 were deprived of water for 48 hours and placed in an experimental apparatus placed in a soundproof box (apparatus made of acrylic resin, 20×20×30 cm, provided with a drinking outlet having a diameter of 1 cm at height of 8 cm from the floor, designed to be able to measure the number of drops per unit hour by a drinkometer), and the anticonflict action of the medicament was evaluated using as an indicator the number of drops (number of licks) in 5 minutes from the start of drinking of 2% saline. The tested medicament was orally administered in an amount of 0.2 ml/100 g body weight 1 hour before the start of the test.

dopamine D2 receptor = molecular target: T1, dopamine D2 receptor (Rattus norvegicus, UniProt P61169); assay: Affinity with dopamine D2 receptor, [3H]Raclopride binding; parameters: species or system male Wistar rats; details: 1.0 nM [3H]Raclopride, rat corpus striatum preparation, 25° C., 60 minutes
T1 construct: the corpus striatums excised from male Wistar rats were homogenized; from tissue; host or cells: rat corpus striatum membrane homogenate
T1 sequence (P61169 whole entry): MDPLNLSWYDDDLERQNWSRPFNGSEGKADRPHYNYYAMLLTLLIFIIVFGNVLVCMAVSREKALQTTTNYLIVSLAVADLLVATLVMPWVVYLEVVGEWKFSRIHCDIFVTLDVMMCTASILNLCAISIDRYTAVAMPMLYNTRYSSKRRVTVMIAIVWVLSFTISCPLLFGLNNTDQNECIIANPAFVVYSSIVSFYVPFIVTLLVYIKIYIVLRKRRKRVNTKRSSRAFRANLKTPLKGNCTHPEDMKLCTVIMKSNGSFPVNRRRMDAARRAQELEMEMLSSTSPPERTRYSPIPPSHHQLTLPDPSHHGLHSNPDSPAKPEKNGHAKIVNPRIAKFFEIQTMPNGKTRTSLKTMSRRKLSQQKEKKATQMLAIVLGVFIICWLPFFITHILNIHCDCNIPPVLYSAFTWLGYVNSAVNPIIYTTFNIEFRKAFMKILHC
Method: The affinity of the compounds of the general formulas (I), (II), and (III) with a dopamine D2 receptor was evaluated in accordance with the method of Kakohler et al. (Biochem. Pharmacol., vol. 34, pp. 2251-2259, 1985). That is, the corpus striatums excised from male Wistar rats were homogenized with the addition of 120 mM sodium chloride, 5 mM potassium chloride, 2 mM calcium chloride, 1 mM magnesium chloride, and 0.01% ascorbic acid contained in 50 mM tris-phosphate buffer (pH 7.7). The homogenate was centrifuged at […] and 35000×g for 10 minutes. The same buffer was added to the resultant precipitate,then this was homogenized again and was similarly centrifuged to obtain the precipitate. The same buffer was added to this precipitate which was then again homogenized to prepare the dopamine D2 receptor.
For the binding experiment, use was made of 1.0 nM of [3H]3,5-dichloro-N-[(1-ethyl-2-pyrrolidinyl)methyl]-6-hydroxy-o-anisamide (Raclopride), various concentrations of test samples were added to a system of 0.34 mg/ml of protein or a total of 0.25 ml, incubation was performed at 25° C. for 60 minutes, then the radioactivity was measured in the same way as in the Evaluation Example 1 to find the degree of binding.
The 50% inhibiting concentration of binding affinity (IC50) was calculated from the degrees of binding at various concentrations of the added samples. […] The IC50 values of typical compounds are shown together with the IC50 values for the serotonin receptor.

[1] = molecular target: T2, serotonin 5-HT1A receptor (Rattus norvegicus, UniProt P19327); assay: Affinity with serotonin receptor, [3H]8-OH-DPAT binding; parameters: species or system male Wistar rats; details: for D2/5-HT1A: ratio of IC50 (D2) to IC50 (5-HT1A)
T2 construct: the hippocampuses extracted from male Wistar rats were homogenized; from tissue; host or cells: rat hippocampus membrane homogenate
T2 sequence (P19327 1-422): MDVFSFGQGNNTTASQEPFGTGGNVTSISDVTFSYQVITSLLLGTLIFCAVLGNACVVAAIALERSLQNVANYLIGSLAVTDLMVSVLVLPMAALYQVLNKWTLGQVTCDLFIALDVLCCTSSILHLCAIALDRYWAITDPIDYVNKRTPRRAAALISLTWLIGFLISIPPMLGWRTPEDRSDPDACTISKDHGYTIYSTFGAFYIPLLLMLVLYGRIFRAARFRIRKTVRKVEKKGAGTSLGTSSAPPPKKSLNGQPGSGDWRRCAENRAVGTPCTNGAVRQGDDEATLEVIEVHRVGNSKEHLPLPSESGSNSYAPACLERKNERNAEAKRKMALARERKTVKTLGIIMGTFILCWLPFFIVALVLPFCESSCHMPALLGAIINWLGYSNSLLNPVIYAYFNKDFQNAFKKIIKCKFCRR
Method: The affinity of the compounds of the general formulas (I), (II), and (III) with a serotonin receptor was evaluated in accordance with the method of S. T. Peuroutka et al. (J. Neurochem., vol. 47, pp. 529-540, 1986). That is, the hippocampuses extracted from male Wistar rats were homogenized while adding 50 mM tris-phosphate buffer (pH 7.7). The homogenate was centrifuged at […] and 40000×g for 10 minutes. The same buffer was added to the obtained precipitate, then this was homogenized again and was similarly centrifuged to obtain the precipitate. This homogenization-centrifugation operation was repeated two times to obtain a final precipitate to which was then added 10 uM of N-methyl-N-2-propynylbenzylamine (Pargyline), 4 mM of calcium chloride, and 0.1% ascorbic acid contained in a 50 mM tris-phosphate buffer (ph 7.7). This was then homogenized to prepare the serotonin receptor.
For the binding experiment, 0.4 nM of [3H]2-di-n-propylamino-8-hydroxy-1,2,3,4-tetrahydronapthalene (8-DPAT; 8-hydroxy-N,N-dipropyl-2-aminotetetrilin) was used, various concentrations of test samples were added to a system of 0.25 mg/ml of protein or a total of 0.25 ml, and these were incubated at 25° C. for 30 minutes. A Whatman GF/C filter was used to filter each of the reaction solutions, then the filter was washed by 20 mM tris-phosphate buffer (pH 7.7). The serotonin receptor was trapped by the filter and the radio activity of the 8-OH-DAPT bonded to it was measured to find the degree of binding. The 50% inhibiting concentration of binding affinity (IC50) was calculated from the degrees of binding in the various sample concentrations. […] The IC50 values of typical compounds are shown together with the IC50 values with respect to the dopamine D2 receptor.

[2] = 0.4 nM [3H]8-OH-DPAT, rat hippocampus preparation, 25° C., 30 minutes, read-out: IC50 (5-HT1A)

## CCC1=COc2ccccc2C(=O)N1CCCCN1CCN(c2ccccn2)CC1 [Example 36, 4,5-dihydro-3-ethyl-4-(4-(4-(2-pyridyl)piperazin-1-yl)butyl)-1,4-benzoxazepin-5-one]
Male Wistar rats
  minimal effective dose: 30 mg/kg

## CC1=COc2ccc(F)cc2C(=O)N1CCCCN1CCN(c2cccc(Cl)n2)CC1 [Example 41, 4-(4-(4-(2-chloropyridin-6-yl)piperazin-1-yl)butyl)-4,5-dihydro-7-fluoro-3-methyl-1,4-benzoxazenin-5-one]
Dopamine D2 receptor
  pIC50: 6.58
Male Wistar rats
  minimal effective dose: 10 mg/kg
[1]; [2]
  pIC50: 8.77
[1]
  D2/5-HT1A: 156

## O=C1c2ccccc2OC=C(Cl)N1CCCCN1CCN(c2ncnc3ccccc23)CC1 [Example 47, 3-chloro-4,5-dihydro-4-(4-(4-(4-quinazolyl)piperazin-1-yl)butyl)-1,4-benzoxazepin-5-one]
Dopamine D2 receptor
  pIC50: 5.86
[1]; [2]
  pIC50: 8.42
[1]
  D2/5-HT1A: 366

## Cc1ccc2c(c1)C(=O)N(CCCCN1CCN(c3ncccn3)CC1)C(Cl)=CO2 [Example 49, 3-chloro-4,5-dihydro-7-methyl-4-(4-(4-(2-pyrimidinyl)-piperazin-1-yl)butyl)-1,4-benzoxazepin-5-one]
Dopamine D2 receptor
  pIC50: 6.39
[1]; [2]
  pIC50: 9.06
[1]
  D2/5-HT1A: 460

## CC1=COc2ccccc2C(=O)N1CCCCN1CC=C(c2ncccn2)CC1 [Example 53, 4,5-dihydro-3-methyl-4-(4-(4-(2-pyrimidinyl)-1,2,5,6-tetrahydropyridin-1-yl)butyl)-1,4-benzoxazepin-5-one]
Dopamine D2 receptor
  pIC50: 6.01
[1]
  pIC50: 7.96
  D2/5-HT1A: 89

## CC1=COc2ccccc2C(=O)N1CCCCN1CCC(c2ncccn2)CC1 [Example 54, 4,5-dihydro-3-methyl-4-(4-(4-(2-pyrimidinyl)piperidin-1-yl)butyl)-1,4-benzoxazepin-5-one]
Male Wistar rats
  minimal effective dose: 10 mg/kg

## CC1=COc2ccc(F)cc2C(=O)N1CCCCN1CC=C(c2ncccn2)CC1 [Example 55, 4,5-dihydro-7-fluoro-3-methyl-4-(4-(4-(2-pyrimidinyl)-1,2,5,6-tetrahydropyridin-1-yl)butyl)-1,4-benzoxazepin-5-one]
Dopamine D2 receptor
  pIC50: 5.90
[1]
  pIC50: 7.89
  D2/5-HT1A: 96

## O=C1c2ccccc2OC=C(Cl)N1CCCCN1CCC(c2ncccn2)CC1 [Example 57, 3-chloro-4,5-dihydro-4-(4-(4-(2-pyrimidinyl)piperidin-1-yl)butyl)-1,4-benzoxazepin-5-one]
Dopamine D2 receptor
  pIC50: 5.74
[1]; [2]
  pIC50: 8.24
[1]
  D2/5-HT1A: 310

## O=C1c2ccc(Cl)cc2OC=C(Cl)N1CCCCN1CC=C(c2ccccn2)CC1 [Example 66, 3,8-dichloro-4,5-dihydro-4-(4-(4-(2-pyridyl)-1,2,5,6-tetrahydropyridin-1-yl)butyl)-1,4-benzoxazepin-5-one]
Dopamine D2 receptor
  pIC50: 6.89
[1]
  pIC50: 9.24
  D2/5-HT1A: 221

## O=C1c2ccc(Cl)cc2OC=C(Cl)N1CCCCN1CCC(c2ccccn2)CC1 [Example 67, 3,8-dichloro-4,5-dihydro-4-(4-(4-(2-pyridyl)piperidin-1-yl)butyl)-1,4-benzoxazepin-5-one]
Dopamine D2 receptor
  pIC50: 6.44
[1]; [2]
  pIC50: 9.36
[1]
  D2/5-HT1A: 816

## CC1=COc2ccc(C)cc2C(=O)N1CCCCN1CC=C(c2ccccn2)CC1 [Example 74, 4,5-dihydro-3,7-dimethyl-4-(4-(4-(2-pyridyl)-1,2,5,6-tetrahydropyridin-1-yl)butyl)-1,4-benzoxazepin-5-one]
Dopamine D2 receptor
  pIC50: 6.47
[1]
  pIC50: 8.36
  D2/5-HT1A: 77
